From patent publication US20250230193A1, “CYCLIC COMPOUND HAVING SELECTIVE KRAS INHIBITORY EFFECT ON HRAS AND NRAS” (CHUGAI SEIYAKU KABUSHIKI KAISHA, priority 2022, published 2025)

What was measured:
[1] = target: GDP-bound HRAS wild-type protein (Homo sapiens, UniProt P01112); assay: Binding to HRAS by surface plasmon resonance (SPR), Single Cycle Kinetics; conditions: SPR; KD ratio class
[2] = tested on: human lung cancer strain NCI-H441; assay: cells; conditions: NCI-H441, 96 h, read-out: NCI-H441 IC50 (nM)
[3] = target: GDP-bound NRAS wild-type protein (Homo sapiens, UniProt P01111); assay: Binding to NRAS by surface plasmon resonance (SPR), Single Cycle Kinetics; conditions: SPR; KD ratio class
Sequence of GDP-bound NRAS wild-type protein (P01111 whole entry): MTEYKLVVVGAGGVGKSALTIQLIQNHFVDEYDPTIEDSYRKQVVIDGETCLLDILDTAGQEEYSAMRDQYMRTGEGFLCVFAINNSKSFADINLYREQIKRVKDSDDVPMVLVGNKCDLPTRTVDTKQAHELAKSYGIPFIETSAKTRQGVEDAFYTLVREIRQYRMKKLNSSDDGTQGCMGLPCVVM

Sequence of GDP-bound HRAS wild-type protein (P01112 whole entry): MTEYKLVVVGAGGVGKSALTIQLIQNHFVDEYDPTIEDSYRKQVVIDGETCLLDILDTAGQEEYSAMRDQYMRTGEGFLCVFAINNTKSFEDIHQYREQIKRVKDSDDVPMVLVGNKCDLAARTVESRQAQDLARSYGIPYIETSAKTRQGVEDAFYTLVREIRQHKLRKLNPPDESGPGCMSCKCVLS

SMILES	IC50 [2] [nM]	HRAS/KRAS (ratio of KD value for GDP-bound HRAS wild-type protein to KD value for KRAS) [1]	NRAS/KRAS (ratio of KD value for GDP-bound NRAS wild-type protein to KD value for KRAS) [3]
CC[C@H](C)[C@@H]1NC(=O)[C@H](CC)N(C)C(=O)C[C@@H](C(=O)N(C)C)N(C)C(=O)[C@H](C2CCCC2)N(C)C(=O)C2(CCC2)NC(=O)[C@@H]2C[C@@H](C(F)(F)F)CN2C(=O)[C@H](CCc2cc(F)c(C(F)(F)F)c(F)c2)NC(=O)CN(C)C(=O)[C@H](CC2CCCCC2)N2CC/C=C\C[C@@H](C2=O)N(C)C(=O)CN(C)C1=O [PP1465]	34.1	A (a compound having 10 or more and less than 20 is denoted as A)	A (a compound having 10 or more and less than 20 is denoted as A)
CCO[C@@H]1C[C@H]2C(=O)NC3(CCCC3)C(=O)N(C)[C@@H](C3CCCC3)C(=O)N(C)[C@H](C(=O)N(C)C)CC(=O)N(C)[C@@H](C)C(=O)N[C@@H]([C@@H](C)CC)C(=O)N(C)CC(=O)N(C)[C@H]3C/C=C\CCN(C3=O)[C@@H](CC3CCCCC3)C(=O)N(C)CC(=O)N[C@@H](CCc3cc(F)c(C(F)(F)F)c(F)c3)C(=O)N2C1 [PP1470]	111	A (a compound having 10 or more and less than 20 is denoted as A)	A (a compound having 10 or more and less than 20 is denoted as A)
CCO[C@@H]1C[C@H]2C(=O)NC3(CCCC3)C(=O)N(C)[C@@H](C3CCCC3)C(=O)N(C)[C@H](C(=O)N(C)C)CC(=O)N(C)[C@@H](CC(C)C)C(=O)N[C@@H]([C@@H](C)CC)C(=O)N(C)CC(=O)N(C)[C@H]3C/C=C\CCN(C3=O)[C@@H](CC3CCCCC3)C(=O)N(C)CC(=O)N[C@@H](CCc3cc(F)c(C(F)(F)F)c(F)c3)C(=O)N2C1 [PP1473]	36.6	A (a compound having 10 or more and less than 20 is denoted as A)	A (a compound having 10 or more and less than 20 is denoted as A)
CC[C@H](C)[C@@H]1NC(=O)[C@H](CC)N(C)C(=O)C[C@@H](C(=O)N(C)C)N(C)C(=O)[C@H](C2CCCC2)N(C)C(=O)C2(CCC2)NC(=O)[C@@H]2CCCN2C(=O)[C@H](CCc2cc(F)c(C(F)(F)F)c(F)c2)NC(=O)CN(C)C(=O)[C@H](CC2CCCCC2)N2CC/C=C\C[C@@H](C2=O)N(C)C(=O)CN(C)C1=O [PP1475]	48.9	A (a compound having 10 or more and less than 20 is denoted as A)	A (a compound having 10 or more and less than 20 is denoted as A)
CCO[C@@H]1C[C@H]2C(=O)NC3(CCC3)C(=O)N(C)[C@@H](C3CCCC3)C(=O)N(C)[C@H](C(=O)N(C)C)CC(=O)N(C)[C@@H](CC3CC3)C(=O)N[C@@H]([C@@H](C)CC)C(=O)N(C)CC(=O)N(C)[C@H]3C/C=C\CCN(C3=O)[C@@H](Cc3ccc(F)cc3C)C(=O)N(C)CC(=O)N[C@@H](CCc3ccc(Cl)c(Cl)c3)C(=O)N2C1 [PP1476]	216	B (a compound having 3 or more and less than 10 is denoted as B)	A (a compound having 10 or more and less than 20 is denoted as A)
CCO[C@@H]1C[C@H]2C(=O)NC3(CCC3)C(=O)N(C)[C@@H](C3CCCC3)C(=O)N(C)[C@H](C(=O)N(C)C)CC(=O)N(C)[C@@H](CC3CC3)C(=O)N[C@@H]([C@@H](C)CC)C(=O)N(C)CC(=O)N(C)[C@H]3C/C=C\CCN(C3=O)[C@@H](Cc3ccc(F)cc3C)C(=O)N(C)CC(=O)N[C@@H](CCc3cc(F)c(Cl)c(F)c3)C(=O)N2C1 [PP1477]	309	B (a compound having 3 or more and less than 10 is denoted as B)	A (a compound having 10 or more and less than 20 is denoted as A)
CCO[C@@H]1C[C@H]2C(=O)NC3(CCC3)C(=O)N(C)[C@@H](C3CCCC3)C(=O)N(C)[C@H](C(=O)N(C)C)CC(=O)N(C)[C@@H](CC3CC3)C(=O)N[C@@H]([C@@H](C)CC)C(=O)N(C)CC(=O)N(C)[C@H]3C/C=C\CCN(C3=O)[C@@H](Cc3ccc(F)cc3)C(=O)N(C)CC(=O)N[C@@H](CCc3ccc(Cl)c(Cl)c3)C(=O)N2C1 [PP1478]	102	A (a compound having 10 or more and less than 20 is denoted as A)	A (a compound having 10 or more and less than 20 is denoted as A)
CCO[C@@H]1C[C@H]2C(=O)NC3(CCC3)C(=O)N(C)[C@@H](C3CCCC3)C(=O)N(C)[C@H](C(=O)N(C)C)CC(=O)N(C)[C@@H](CC(C)C)C(=O)N[C@@H]([C@@H](C)CC)C(=O)N(C)CC(=O)N(C)[C@H]3C/C=C\CCN(C3=O)[C@@H](Cc3ccc(F)cc3C)C(=O)N(C)CC(=O)N[C@@H](CCc3ccc(Cl)c(Cl)c3)C(=O)N2C1 [PP1480]	85.8	B (a compound having 3 or more and less than 10 is denoted as B)	A (a compound having 10 or more and less than 20 is denoted as A)
CCO[C@@H]1C[C@H]2C(=O)NC3(CCC3)C(=O)N(C)[C@@H](C3CCCC3)C(=O)N(C)[C@H](C(=O)N(C)C)CC(=O)N(C)[C@@H](CC(C)C)C(=O)N[C@@H]([C@@H](C)CC)C(=O)N(C)CC(=O)N(C)[C@H]3C/C=C\CCN(C3=O)[C@@H](Cc3ccc(F)cc3C)C(=O)N(C)CC(=O)N[C@@H](CCc3cc(F)c(Cl)c(F)c3)C(=O)N2C1 [PP1481]	14.8	B (a compound having 3 or more and less than 10 is denoted as B)	A (a compound having 10 or more and less than 20 is denoted as A)

The remaining compounds from weak to strong by IC50 [2], led by results:

IC50 [2] [nM]	SMILES	HRAS/KRAS (ratio of KD value for GDP-bound HRAS wild-type protein to KD value for KRAS) [1]	NRAS/KRAS (ratio of KD value for GDP-bound NRAS wild-type protein to KD value for KRAS) [3]
140	CCO[C@@H]1C[C@H]2C(=O)NC3(CCC3)C(=O)N(C)[C@@H](C3CCCC3)C(=O)N(C)[C@H](C(=O)N(C)C)CC(=O)N(C)[C@@H](CC3CC3)C(=O)N[C@@H]([C@@H](C)CC)C(=O)N(C)CC(=O)N(C)[C@H]3C/C=C\CCN(C3=O)[C@@H](Cc3ccc(F)cc3)C(=O)N(C)CC(=O)N[C@@H](CCc3cc(F)c(Cl)c(F)c3)C(=O)N2C1 [PP1479]	B (a compound having 3 or more and less than 10 is denoted as B)	A (a compound having 10 or more and less than 20 is denoted as A)
121	CC[C@H](C)[C@@H]1NC(=O)[C@H](CC)N(C)C(=O)C[C@@H](C(=O)N(C)C)N(C)C(=O)[C@H](C2CCCC2)N(C)C(=O)C2(CCC2)NC(=O)[C@@H]2CCCN2C(=O)[C@H](CCc2cc(F)c(C(F)(F)F)c(F)c2)NC(=O)CN(C)C(=O)[C@H](CC2CCC(F)(F)CC2)N2CC/C=C\C[C@@H](C2=O)N(C)C(=O)CN(C)C1=O [PP1461]	A (a compound having 10 or more and less than 20 is denoted as A)	A (a compound having 10 or more and less than 20 is denoted as A)
48.2	CC[C@H](C)[C@@H]1NC(=O)[C@H](CC)N(C)C(=O)C[C@@H](C(=O)N(C)C)N(C)C(=O)[C@H](C2CCCC2)N(C)C(=O)C2(CCC2)NC(=O)[C@@H]2C[C@H](C)CN2C(=O)[C@H](CCc2cc(F)c(C(F)(F)F)c(F)c2)NC(=O)CN(C)C(=O)[C@H](CC2CCCCC2)N2CC/C=C\C[C@@H](C2=O)N(C)C(=O)CN(C)C1=O [PP1471]	A (a compound having 10 or more and less than 20 is denoted as A)	A (a compound having 10 or more and less than 20 is denoted as A)
48.2	CCO[C@@H]1C[C@H]2C(=O)NC3(CCC3)C(=O)N(C)[C@@H](C3CCCC3)C(=O)N(C)[C@H](C(=O)N(C)C)CC(=O)N(C)[C@@H](CC(C)(C)C)C(=O)N[C@@H]([C@@H](C)CC)C(=O)N(C)CC(=O)N(C)[C@H]3C/C=C\CCN(C3=O)[C@@H](CC3CCCCC3)C(=O)N(C)CC(=O)N[C@@H](CCc3cc(F)c(C(F)(F)F)c(F)c3)C(=O)N2C1 [PP1474]	A (a compound having 10 or more and less than 20 is denoted as A)	A (a compound having 10 or more and less than 20 is denoted as A)
32.9	CCO[C@@H]1C[C@H]2C(=O)NC3(CCC3)C(=O)N(C)[C@@H](C3CCCC3)C(=O)N(C)[C@H](C(=O)N(C)C)CC(=O)N(C)[C@@H](CC(C)(C)C)C(=O)N[C@@H]([C@@H](C)CC)C(=O)N(C)CC(=O)N(C)[C@H]3C/C=C\CCN(C3=O)[C@@H](CC3CCC(F)(F)CC3)C(=O)N(C)CC(=O)N[C@@H](CCc3cc(F)c(C(F)(F)F)c(F)c3)C(=O)N2C1 [PP1460]	A (a compound having 10 or more and less than 20 is denoted as A)	A (a compound having 10 or more and less than 20 is denoted as A)
22.2	CCO[C@@H]1C[C@H]2C(=O)NC3(CCC3)C(=O)N(C)[C@@H](C3CCCC3)C(=O)N(C)[C@H](C(=O)N(C)C)CC(=O)N(C)[C@@H](CC3CCC3)C(=O)N[C@@H]([C@@H](C)CC)C(=O)N(C)CC(=O)N(C)[C@H]3C/C=C\CCN(C3=O)[C@@H](CC3CCCCC3)C(=O)N(C)CC(=O)N[C@@H](CCc3cc(F)c(C(F)(F)F)c(F)c3)C(=O)N2C1 [PP1469]	A (a compound having 10 or more and less than 20 is denoted as A)	A (a compound having 10 or more and less than 20 is denoted as A)
